Experiment [1] deals with Detroit-562 cells. As to the kind of experiment: Combination studies (single and sequential combination dosing), % cytotoxicity in Detroit-562 cells. Conditions: Homo sapiens, Detroit 562, Detroit-562; for cytotoxicity at 14.1 µM: single agent at IC50 (compound B 14.1 μM); for cytotoxicity at 25.2 µM: single agent at IC70 (compound B 25.2 μM).
The test system of experiment [2] is Detroit-562 cells. In words: CCK-8 cytotoxicity assay, determination of inhibitory concentrations in Detroit-562 cells. The conditions noted are these: 72 hr. The class given is cell-based.
Another experiment relates to FADU cells. As to the kind of experiment: cells. Conditions: Homo sapiens; for cytotoxicity at 4.1 µM: single agent at IC50 (compound B 4.1 μM); for cytotoxicity at 9.6 µM: single agent at IC70 (compound B 9.6 μM).
For the next experiment, the system named is SCC-25 cells. In words: CCK-8 cytotoxicity assay, determination of inhibitory concentrations in SCC-25 cells. In kind it is cell-based. The conditions noted are these: SCC-25 cells, 72 hr. Here is the method:
Logarithmically growing cells were plated at a density of 3×10^3 cells/well and allowed to recover overnight. […] After 72 hours, cell toxicity was determined by CCK-8 (Cell Counting Kit-8) reagent (Dojindo Molecular Technologies, Japan); WST-8 (2-(2-methoxy-4-nitrophenyl)-3-(4-nitrophenyl)-5-(2, 4-disulfophenyl)]-2H-tetrazolium, monosodium salt) assay. In accordance with the manufacturer's instructions, 5 μl/well CCK-8 reagent was added and plates were incubated for 2 hours. The toxicity was determined by measuring the absorbance on Tecan Sapphire multi-fluorescence micro-plate reader (Tecan, Germany, GmbH) at a wavelength of 450 nm corrected to 650 nm and normalized to controls.
CCK-8 allows convenient assays using Dojindo's tetrazolium salt, WST [8[(2-(2-methoxy-4-nitrophenyl)-3-(4-nitrophenyl)-5-(2,4-disulfophenyl)-2H-tetrazolium, monosodium salt], which produces a water-soluble formazan dye upon bioreduction in the presence of an electron carrier, 1-Methoxy PMS. CCK-8 solution is added directly to the cells; no pre-mixing of components is required. CCK-8 is a sensitive nonradioactive colorimetric assay for determining the number of viable cells in cell proliferation and cytotoxicity assays. WST-8 is bio-reduced by cellular dehydrogenases to an orange formazan product that is soluble in tissue culture medium. The amount of formazan produced is directly proportional to the number of living cells. The detection sensitivity of cell proliferation assays using WST-8 is higher than assays using the other tetrazolium salts such as MIT, XTT, MTS or WST-1. Optical Density was determined at measurement wavelength of 450 nm and reference wave length of 630 nm.
The cells were seeded at a density of 3000 cells/well, in a 200 μL in tissue culture grade 96 well plate and were allowed to recover for 24 hrs in a humidified 5%±0.2 CO2 incubator at 37° C.±0.5° C. […] The final DMSO concentration was 0.5% in wells. Plates were incubated for 48 hrs in humidified 5%±0.2 CO2 incubator at 37±0.5° C. After 48 hrs the plates were removed from CO2 incubator and 5 μL of Cell counting Kit (CCK-8) per well was added. The same plate was kept at 37° C. for 3 hrs, and allowed to come to room temperature. The absorbance at a wavelength of 450 nm was read on Tecan safire reader. The percent cytotoxicity was calculated using the following formula.

On to `CN1CC[C@@H](c2c(O)cc(O)c3c(=O)cc(-c4ccc(C(F)(F)F)cc4Cl)oc23)[C@@H]1CO.Cl` [Compound B, (+)-trans-2-(2-chloro-4-trifluoromethyl-phenyl)-5,7-dihydroxy-8-(2-hydroxymethyl-1-methyl-pyrrolidin-3-yl)-chromen-4-one hydrochloride], for which the cytotoxicity at 2.7 µM in the experiment on Detroit-562 cells [1] (single agent at IC30 (lapatinib 1.0 μM; compound B 2.7 μM)) and with Detroit-562 cells [1] (single agent at IC30 (sorafenib 1.8 μM; compound B 2.7 μM)) was 15% in each case. Besides, the results for the cytotoxicity at 14.1 µM in the experiment on Detroit-562 cells [1] (lapatinib study) and with Detroit-562 cells [1] (sorafenib study) were 18% and 19%, respectively. Also, the cytotoxicity at 25.2 µM amounted to 30% with Detroit-562 cells [1] (lapatinib study) and 26% in the experiment on Detroit-562 cells [1] (sorafenib study). Moreover, the IC30 with Detroit-562 cells [2] stood at 2.7 µM; in the experiment with SCC-25 cells, 0.2 µM. Also, the values for the IC70 in the experiment with Detroit-562 cells [2] and with SCC-25 cells were 25.2 µM and 4.8 µM, respectively. For the same molecule, the concentration for half-maximal inhibition (IC50) in the experiment on Detroit-562 cells [2] (Homo sapiens) came out at 14.1 µM; in the experiment on SCC-25 cells (Homo sapiens, read-out: IC50), 1.1 µM. Further, the IC90 stood at 44.6 µM with Detroit-562 cells [2] (Homo sapiens) and 41.8 µM with SCC-25 cells (Homo sapiens). Besides, the cytotoxicity at 2.3 µM was 21% in the experiment with FADU cells (single agent at IC30 (lapatinib 0.8 μM; compound B 2.3 μM)) and 14% in the experiment with FADU cells (single agent at IC30 (sorafenib 3.9 μM; compound B 2.3 μM)). The cytotoxicity at 4.1 µM in the experiment on FADU cells (lapatinib study) was determined as 26%; in the experiment on FADU cells (sorafenib study), 20%. Further, the cytotoxicity at 9.6 µM in the experiment on FADU cells (lapatinib study) stood at 33%; in the experiment with FADU cells (sorafenib study) it was 27%.

One may read the IC30 as the concentration at which the effect reaches the 30% level. The low end stands for an effect from little substance, the high end for a need for much substance. In general, IC70 refers to the concentration needed for an effect of 70%. Read a high IC70 as weaker potency. Usually IC50 stands for the midpoint of a concentration-inhibition curve. As a reminder, the IC90 is the concentration at which the effect reaches the 90% level. A low value points to an effect from little substance.

For the origin of these results see patent US10980776B2, “Synergistic pharmaceutical combination for the treatment of squamous cell carcinoma of head and neck” (Piramal Enterprises Limited, priority 2011, dated 2021).
